Laboratory results: patent US4237141A, “Derivatives of α-methyl-β-aminopropiophenone and use thereof” (priority 1977, dated 1980)

What was measured:
[1] = system: canine femoral arterial preparation; assay: Vasodilating action in the canine anesthetized femoral arterial preparation (close arterial injection); assay type: in vivo
Text: (§1) Reference will now be made to pharmacological effects of the compounds according to the present invention.
(§2) (1) Relaxant action on the guinea-pig isolated tracheal smooth muscles and the vasodilating action on the canine anesthetized femoral arterial preparation were employed to compare the pharmacological effects of each of the compounds.

[2] = system: guinea-pig isolated tracheal smooth muscles; assay: Relaxant action on guinea-pig isolated tracheal chain contracted by histamine; conditions: for EC50: Cavia porcellus, contracted by 10^-4 M histamine, read-out: A: 50% effective amount for the guinea-pig isolated tracheal smooth muscles (50% relaxation); for B/A: selectivity to tracheal smooth muscles: based on reference B/A value 1 for isoproterenol, B from canine femoral artery
Text: as §1, §2

β-adrenoceptor = assay: Relaxant action on guinea-pig isolated trachea in the presence of propranolol (β-adrenoceptor involvement); conditions: histamine 10^-4 M; propranolol 2.5×10^-5 M; FIGS. 1-4
Text: as §2
Histamine (10^-4 M in the bath medium) was applied to the guinea-pig isolated tracheal preparation to contract the muscles, and the effect of the above compounds to inhibit the contraction (%) was plotted along the ordinate on each of the points for concentration which were connected by a solid line into a curve. Then, the dose-response curve for the compound in the presence of propranolol (2.5×10^-5 M) was obtained and plotted in a dotted line.

[3] = Acute toxicity, intraperitoneal injection in mice; conditions: mouse, in vivo, ip; intraperitoneal injection to mice; read-out: F: Approx. LD50 value
Description: Another experiment was also conducted using mice as an index for the acute toxicity to the whole body.
Approx. LD50 value on intraperitoneal injection for mice was determined.

[4] = system: canine blood-perfused tracheal preparation; assay: Canine blood-perfused tracheal preparation in situ: intraluminal pressure decrease and perfused-blood flow increase; assay type: in vivo; conditions: for D/C × 10: selectivity: based on reference D/C value 1 for isoproterenol; for C: dose required for 20 cm H2O decrease in the tracheal intraluminal pressure (bronchodilator action) / D: dose required for 5 ml/min increase in the perfused-blood flow (vasodilator action): canine blood-perfused tracheal preparation in situ
Description: as §1
The bronchodilator action was represented by a dose (C), μg, of a compound required for decreasing the intraluminal pressure by 20 cm H2 O and the vasodilator action was represented by a dose (D), μg, of the compound required for increasing the perfused-blood flow by 5 ml/min.

Row | Structure (SMILES) | B: dose required for 30 ml/min increase in the perfused-blood flow (vasodilator action) [1] [µg] | EC50 [2] [µM] | B/A: selectivity to tracheal smooth muscles [2] | difference between dose-response curves without and with propranolol (inhibition of histamine contraction) (β-adrenoceptor) | LD50 [3] [mg/kg] | D/C × 10: selectivity [4] | C: dose required for 20 cm H2O decrease in the tracheal intraluminal pressure (bronchodilator action) [4] [µg] | D: dose required for 5 ml/min increase in the perfused-blood flow (vasodilator action) [4] [µg]
1 | CC(CN1CCCCC1)C(=O)c1ccc([S+](C)[O-])cc1 (centres unmarked) [Compound 4, 1-(4-methylsulfinylphenyl)-3-piperidino-2-methylpropanone-1] | 800 | 300 | 3 | – | – | – | – | –
2 | CC[S+]([O-])c1ccc(C(=O)C(C)CN2CCCCC2)cc1 (centres unmarked) [Compound 10] | 700 | 200 | 4 | – | – | – | – | –
3 | CC(CN1CCCCC1)C(=O)c1ccc(S(C)(=O)=O)cc1 (centres unmarked) [Compound 16, 1-(4-methylsulfonylphenyl)-3-piperidino-2-methylpropanone-1] | 750 | 60 | 12 | no substantial difference | – | – | – | –
4 | CCS(=O)(=O)c1ccc(C(=O)C(C)CN2CCCCC2)cc1 (centres unmarked) [Compound 22, 1-(4-ethylsulfonylphenyl)-3-piperidino-2-methylpropanone-1] | 580 | 60 | 9 | – | – | – | – | –
5 | CCSc1ccc(C(=O)C(C)CN2CCOCC2)cc1 (centres unmarked) [Compound 25, 1-(4-ethylthiophenyl)-3-morpholino-2-methylpropanone-1] | 100 | 100 | 1 | – | 200 | – | – | –
6 | CCCC[S+]([O-])c1ccc(C(=O)C(C)CN2CCCCC2)cc1 (centres unmarked) [Compound 28, 1-(4-butylsulfinylphenyl)-3-piperidino-2-methylpropanone-1] | 460 | 60 | 8 | – | – | – | – | –
7 | CCSc1ccc(C(=O)C(C)CN2CCCCC2)cc1 (centres unmarked) [Compound 29, 1-(4-ethylthiophenyl)-3-piperidino-2-methylpropanone-1] | 180 | 2 | 90 | no substantial difference | – | 7 | 109 | 77
8 | CCCCS(=O)(=O)c1ccc(C(=O)C(C)CN2CCCCC2)cc1 (centres unmarked) [Compound 36, 1-(4-butylsulfonylphenyl)-3-piperidino-2-methylpropanone-1] | 360 | 20 | 18 | – | – | 3 | 333 | 100
9 | CCSc1ccc(C(=O)C(C)CN2CCCC2)cc1 (centres unmarked) [Compound 37] | 175 | 30 | 6 | – | 200 | – | – | –
10 | CC(CN1CCCCC1)C(=O)c1ccc(S(=O)(=O)c2ccccc2)cc1 (centres unmarked) [Compound 42, 1-(4-phenylsulfonylphenyl)-3-piperidino-2-methylpropanone-1] | 175 | 20 | 9 | – | – | – | – | –
11 | CSc1ccc(C(=O)C(C)CN(C)C)cc1 (centres unmarked) [Compound 48, 1-(4-methylthiophenyl)-3-dimethylamino-2-methylpropanone-1] | 100 | 6 | 17 | – | – | – | – | –
12 | CSc1ccc(C(=O)C(C)CN2CCCC2)cc1 (centres unmarked) [Compound 50] | 43 | 6 | 7 | – | – | – | – | –
13 | CSc1ccc(C(=O)C(C)CN2CCCCC2)cc1 (centres unmarked) [Compound 51, 1-(4-methylthiophenyl)-3-piperidino-2-methylpropanone-1] | 240 | 6 | 40 | no substantial difference | – | 8 | 62.5 | 50
14 | CSc1ccc(C(=O)C(C)CN2CCN(C)CC2)cc1 (centres unmarked) [Compound 53] | 430 | 200 | 2 | – | – | – | – | –
15 | CCSc1ccc(C(=O)C(C)CN(C)C)cc1 (centres unmarked) [Compound 54] | 350 | 60 | 6 | – | 200 | – | – | –
16 | CCSc1ccc(C(=O)C(C)CN(CC)CC)cc1 (centres unmarked) [Compound 55] | 270 | 60 | 5 | – | 200 | – | – | –
17 | CC(C)NCC(O)c1ccc(O)c(O)c1 (centres unmarked) [isoproterenol, reference compound] | 0.0053 | 0.005 | – | – | – | – | 0.1 | 0.01
18 | CC(C)(C)NCC(O)c1ccc(O)c(CO)c1 (centres unmarked) [salbutamol] | – | – | – | – | – | 2 | 2 | 0.4
19 | CC(C)(C)NCC(O)c1cc(O)cc(O)c1 (centres unmarked) [terbutaline] | – | – | – | – | – | 4 | 0.5 | 0.2
20 | COc1cc(CC2NCCc3cc(O)c(O)cc32)cc(OC)c1OC (centres unmarked) [trimetoquinol] | – | – | – | – | – | 2.5 | 0.2 | 0.05
